Test results published in ChEMBL document CHEMBL4813957, “Antitubercular properties of thiazolidin-4-ones - A review” (Eur J Med Chem, 2021).
Values after ≈ are worked out from the molar mass of the structure shown.

Tests used:
[1] = tested on: Mycobacterium tuberculosis; experiment: Antimycobacterial activity against Mycobacterium tuberculosis H37Rv assessed as inhibition of bacteria at 12.5 ug/ml measured after 12 to 28 days by Lowenstein-Jensen method relative to control; format: functional; details: time 12-28 day
[2] = tested on: Mycobacterium tuberculosis; experiment: Antimycobacterial activity against Mycobacterium tuberculosis H37Rv ATCC 25618 incubated for 5 days by colorimetric microdilution assay; format: functional; details: H37Rv ATCC 25618, 120 h, time 5 day
[3] = tested on: Mycobacterium tuberculosis; experiment: Antimycobacterial activity against Mycobacterium tuberculosis H37Rv incubated for 4 weeks; format: functional; details: 672 h
[4] = tested on: Mycobacterium tuberculosis; experiment: Antimycobacterial activity against Mycobacterium tuberculosis H37Rv ATCC 27294 by BACTEC radiometric method; format: functional
[5] = Selectivity ratio of IC50 for human WI-38 cells to MIC for Mycobacterium tuberculosis RCMB 010126; format: toxicity
WI-38 = experiment: Cytotoxicity against human WI-38 cells by MTT assay; format: cell-based
[6] = tested on: Mycobacterium tuberculosis; experiment: Antimycobacterial activity against Mycobacterium tuberculosis RCMB 010126 measured after 7 days by microplate alamar blue assay; format: functional; details: RCMB 010126, 168 h, time 7 day
[7] = tested on: Mycobacterium tuberculosis; experiment: Antimycobacterial activity against Mycobacterium tuberculosis H37Rv assessed as growth inhibition at 12.5 ug/ml by BACTEC radiometric method relative to control; format: functional; details: read-out: GI
[8] = tested on: Mycobacterium tuberculosis; experiment: Antimycobacterial activity against Mycobacterium tuberculosis; format: functional
[9] = tested on: Mycobacterium tuberculosis; experiment: Antimycobacterial activity against Mycobacterium tuberculosis H37Rv ATCC 27294; format: functional
[10] = tested on: Mycobacterium tuberculosis; experiment: Antimycobacterial activity against Mycobacterium tuberculosis H37Rv 27294 by microplate alamar blue assay; format: functional
[11] = Cytotoxicity against African green monkey Vero cells after 72 hrs by cell titer glo luminescent cell viability assay; format: cell-based; details: chlorocebus sabaeus
[12] = tested on: Mycobacterium tuberculosis; experiment: Antimycobacterial activity against Mycobacterium tuberculosis H37Rv assessed as growth inhibition at 50 ug/ml by Lowenstein-Jensen method relative to control; format: functional; details: read-out: GI
[13] = tested on: Mycobacterium tuberculosis; experiment: Antimycobacterial activity against Mycobacterium tuberculosis H37Rv assessed as bacterial growth inhibition at 6.25 ug/ml by BACTEC MGIT method relative to control; format: functional
[14] = tested on: Mycobacterium tuberculosis; experiment: Antimycobacterial activity against Mycobacterium tuberculosis H37Rv assessed as growth inhibition at 6.25 ug/ml by BACTEC radiometric method relative to control; format: functional; details: read-out: GI
[15] = tested on: Mycobacterium tuberculosis; experiment: Antimycobacterial activity against Mycobacterium tuberculosis H37Rv incubated for 45 days by Lowenstein-Jensen method; format: functional; details: 1080 h, time 45 day
[16] = tested on: Mycobacterium tuberculosis; experiment: Antimycobacterial activity against Mycobacterium tuberculosis H37Rv measured after 12 to 28 days by Lowenstein-Jensen method; format: functional; details: time 12-28 day
[17] = tested on: Mycobacterium tuberculosis; experiment: Antimycobacterial activity against Mycobacterium tuberculosis H37Rv ATCC 27294 assessed as growth inhibition at 12.5 ug/ml by microplate alamar blue assay relative to control; format: functional; details: read-out: GI
[18] = tested on: Mycobacterium tuberculosis; experiment: Antimycobacterial activity against Mycobacterium tuberculosis by microplate alamar blue assay; format: functional
[19] = Selectivity ratio of CC50 for African green monkey Vero E6 cells to IC90 for Mycobacterium tuberculosis H37Rv 27294; format: toxicity, Vero C1008
[20] = tested on: Mycobacterium tuberculosis; experiment: Antimycobacterial activity against Mycobacterium tuberculosis Erdman measured up to 2 weeks; format: functional; details: 336 h, time weeks <=2
[21] = tested on: Mycobacterium tuberculosis; experiment: Antimycobacterial activity against Mycobacterium tuberculosis measured up to 2 weeks; format: functional; details: 336 h, time weeks <=2
[22] = tested on: Mycobacterium tuberculosis; experiment: Antimycobacterial activity against Mycobacterium tuberculosis H37Rv measured after 11 to 12 days; format: functional; details: time 11-12 day
[23] = tested on: Mycobacterium tuberculosis; experiment: Antimycobacterial activity against Mycobacterium tuberculosis HN878 measured up to 2 weeks; format: functional; details: HN878, 336 h, time weeks <=2

O=C1CSC(c2cc3ccccc3nc2Cl)N1c1ccc(F)cc1 (stereo not drawn)
inhibition at 12.5 µg/mL [1]: 99%

C/C(=N/N=C1\NC(=O)CS1)c1cc2ccccc2oc1=O
MIC [2]: 83 µg/mL (≈ 275 µM)

O=C(CNNC(=O)c1ccncc1)COc1ccc(/C=C2\SC(=O)NC2=O)cc1
MIC [3]: 50 µg/mL (≈ 121 µM)

COc1ccc(/C=C2\SC(=O)N(CNNC(=O)c3ccncc3)C2=O)cc1
MIC [3]: 50 µg/mL (≈ 130 µM)

N#Cc1ccc(C2SCC(=O)N2NC(=O)c2[nH]c3ccc(F)cc3c2-c2ccccc2)cc1 (stereo not drawn)
MIC [4]: 6.25 µg/mL (≈ 13.7 µM)

CCOC(=O)c1sc(/N=C2\NC(=O)/C(=C/c3cccnc3)S2)nc1C
selectivity ratio [5]: 52
IC50 (WI-38): 81.3 µg/mL (≈ 217 µM)
MIC [6]: 1.56 µg/mL (≈ 4.17 µM)

O=C(NN1C(=O)CSC1c1ccc([N+](=O)[O-])cc1)c1[nH]c2ccc(F)cc2c1-c1ccccc1 (stereo not drawn)
MIC [4]: 6.25 µg/mL (≈ 13.1 µM)

Cc1ccc(N2C(=O)CSC23C(=O)Nc2ccc(C)cc23)cc1 (stereo not drawn)
inhibition of growth at 12.5 µg/mL [7]: 90%

O=C(O)c1ccc(N2C(=O)CSC23C(=O)Nc2ccc(F)cc23)cc1O (stereo not drawn)
inhibition of growth at 12.5 µg/mL [7]: 98%

Cc1nc(/N=C2\C(=O)Nc3ccccc32)sc1C(=O)NN1C(=O)CSC1c1ccccc1Cl (stereo not drawn)
MIC [8]: 0.78 µM (≈ 0.388 µg/mL)

CCn1c(C(=O)NN2C(=O)CSC2c2ccc([N+](=O)[O-])cc2)cc(=O)c2cc(F)c(N3CCNCC3)cc21 (stereo not drawn)
MIC [9]: 16.3 µM (≈ 8.8 µg/mL)

CCN1C(=O)/C(=C/c2ccccc2F)S/C1=N/NC(=O)c1ccncc1
IC90 [10]: 2.95 µg/mL (≈ 7.97 µM)
CC50 at 72 h [11]: 22.8 µg/mL (≈ 61.4 µM)

O=C1CSC(c2ccccc2)N1C(=O)NCCCN1c2ccccc2Sc2ccccc21 (stereo not drawn)
inhibition of growth at 50 µg/mL [12]: 75%

Cc1nc2ccccc2c(=O)n1CCNC1=NC(=O)/C(=C/c2cccc(Cl)c2)S1
inhibition at 6.25 µg/mL [13]: 99%

COc1ccc(C(=O)Nc2ccc(C(=O)NN3C(=O)CSC3c3ccccc3)cc2)cc1 (stereo not drawn)
inhibition of growth at 6.25 µg/mL [14]: 90%

CC1Oc2ccccc2C=C1/C=C1\SC(=S)NC1=O (stereo not drawn)
MIC [15]: 0.36 µM (≈ 0.104 µg/mL)

N#CSc1ccc2nc(NC(=O)CN3C(=O)/C(=C/c4cccc(Br)c4)SC3=S)sc2c1
MIC [16]: 25 µg/mL (≈ 45.7 µM)

O=C1CSC(c2c(-c3ccccc3)[nH]c3ccc(Cl)cc23)N1c1nc(-c2cc3cc(Br)ccc3oc2=O)cs1 (stereo not drawn)
inhibition of growth at 12.5 µg/mL [17]: 80%

COc1ccc(/C=C2\SC(=S)N(Cc3nnc(-c4cccnc4SCc4ccccc4)o3)C2=O)cc1
inhibition of growth at 50 µg/mL [12]: 99%

O=C(NN1C(=O)CSC1c1cccc([N+](=O)[O-])c1)c1coc2ccc3ccccc3c12 (stereo not drawn)
MIC [18]: 50 µg/mL (≈ 115 µM)

O=C1/C(=C/c2ccc(F)cc2)SC(=S)N1Cc1nnc(-c2cccnc2SCc2ccccc2)o1
inhibition of growth at 50 µg/mL [12]: 99%

Cc1nc(/N=C2\C(=O)Nc3ccccc32)sc1C(=O)NN1C(=O)CSC1c1ccc(F)cc1 (stereo not drawn)
MIC [8]: 0.78 µM (≈ 0.376 µg/mL)

CCN1C(=O)/C(=C/c2ccc(OC)cc2)S/C1=N/NC(=O)c1ccncc1
IC90 [10]: 2.95 µg/mL (≈ 7.72 µM)
CC50 at 72 h [11]: 36.9 µg/mL (≈ 96.4 µM)
selectivity ratio [19]: 18.1

O=C(O)CCCCCC1NC(=O)CS1 (stereo not drawn)
MIC [20]: 1.56 µM (≈ 0.339 µg/mL)
MIC [21]: 0.096 µM (≈ 0.0209 µg/mL)
MIC [22]: 1.56 µM (≈ 0.339 µg/mL)
MIC [23]: 0.6 µM (≈ 0.13 µg/mL)

Cc1cc(C)c2c(c1)C1(SCC(=O)N1c1ccccc1C(=O)O)C(=O)N2 (stereo not drawn)
inhibition of growth at 12.5 µg/mL [7]: 90%
